Laboratory results taken from patent US6916471B2, “Red blood cells loaded with S-nitrosothiol and uses therefor” (Duke University, priority 1995, dated 2005).

Key:
rabbit aortic ring [1] = assay: CysNOEE-treated human blood, rabbit aortic ring bioassay; settings: CysNOEE:heme 1:100 to 10:1; 21% and 1% oxygen
Description: S-nitrosocysteine ethyl ester (CysNOEE) was added to human whole blood to interact with the red blood cells. CysNOEE:Heme (see FIG. 22) is the molar ratio of CysNOEE to heme in hemoglobin contained in red blood cells, for CysNOEE incubated with blood for 5 minutes at room temperature. After these incubations at different CysNOEE:heme ratios (1:100, 1:10, 1:1 and 10:1; see FIG. 22), red blood cell membranes were isolated by lysis and centrifugation, and S-nitrosothiol (SNO) content of the isolated membranes was determined by photolysis chemiluminescence assay. The concentrations of SNO in the red blood cell membranes were plotted in FIG. 22 as membrane SNO. Bioactivity of red blood cells—from release of biologically active NO—was determined in a rabbit aortic ring bioassay under two different concentrations of oxygen, and the results are plotted in FIG. 22 as 21% oxygen, vasoactivity, and 1% oxygen, vasoactivity.

rabbit aortic ring [2] = assay: Rabbit aortic ring perfused with blood of PPH patient after ethyl nitrite; settings: 1% oxygen
Source text: The downward deflection on the plot indicates a dilation of the blood vessel, which for the “NO” blood, occurred for approximately 30 seconds.

[3] = tested on: patient with primary pulmonary hypertension; assay: Inhaled ethyl nitrite in patients with primary pulmonary hypertension, red blood cell NO; assay type: in vivo, human; settings: PPH patients
Description: A patient with primary pulmonary hypertension, with blood having starting values for SNO-hemoglobin, iron nitrosylhemoglobin and total NO/hemoglobin molar ratio as shown in the left bar of FIG. 15, was given an NO-donating drug by inhalation. Ethyl nitrite was diluted in ethanol. Oxygen carrier gas was passed though the ethyl nitrite solution and delivered to the patient at 10 liters/min. After 10 minutes, blood was withdrawn and analyzed by photolysis chemoluminescence. Results are shown in the right bar of FIG. 15, for the patient's blood after treatment. SNO-Hb and total Hb-bound NO levels were depressed in the patient relative to normal controls, but rose during inhalation of ethyl nitrite gas. The experiment was repeated for other patients (n=5).

rabbit aortic ring [4] = assay: Rabbit aortic ring bioassay of CYSNO-treated blood with or without glutathione; settings: 100 μM
Description: NO-loaded red blood cells were produced by incubating whole human blood in a solution comprising S-nitrosocysteine (CYSNO) at a molar ratio of 1:100 CYSNO:hemoglobin for 5 minutes at room temperature. The bioactivity of the treated blood was tested in a rabbit aortic ring bioassay, in the presence (+GSH) or absence (−GSH) of 100 μM glutathione.

Sprague-Dawley rat = assay: Mean arterial pressure after femoral vein injection of loaded red blood cells; assay type: in vivo; settings: 50 mg/kg
Source text: Systemic administration of cell-free Hb results in hypertensive responses which have been attributed to NO scavenging by the heme (Vogel, W. M., et al., Am. J. Physiol. 251:H413-H420 (1986); Olsen, S. B., et al., Circulation 93:329-332 (1996)). To determine if SNO-Hb is free of this adverse affect, and to explore if in vitro mechanisms of NO release extend to the in vivo circumstance, we compared responses to Hb and SNO-Hb infused as a bolus into the femoral vein of anesthetized rats. […] Thus, the profiles of these compounds in vivo closely resemble those seen in vitro (FIG. 4A). […] These changes in mean blood pressure of ˜10% are on the order of those that differentiate normotension from hypertension in man, and in the therapeutic range of some antihypertensive regimens. […] The bioactivity of SNO-Hb in blood, where S—NO/heme stoichiometries approach 1:50,000, is a dramatic illustration of the resistence of this NO-related activity to Hb(Fe) inactivation. […]
Rats were anesthetized by intraperitoneal injection of pentobarbital and the femoral arteries and veins accessed by local cut down. The artery was then cannulated and the blood pressure monitored continuously using a Viggo Spectramed pressure transducer attached to a Gould recorder. […]

[5] = Endogenous SNO-Hb and Hb(FeII)NO in blood by photolysis-chemiluminescence; assay type: in vivo, rat; settings: 45 minutes after infusion, 50 mg/kg
Source text: To determine if SNO-Hb is naturally occuring in the blood, and if so, its relationship to the O2 transport capacity and nitrosylated-heme content of red cells, we developed an analytical approach to assay the S-nitrosothiol and nitrosyl-heme content of erythrocytes (Table 2). […] Hb was then purified from red cells and assayed for RSNO and (FeII)NO content. Arterial blood contained significant levels of SNO-Hb, whereas levels were virtually undetectable in venous blood (Table 2). […] The arterial-venous distribution seen for SNO-Hb was reversed in the case of Hb(FeII)NO, which was detected in higher concentrations in partially deoxygenated (venous) erythrocytes (Table 2). […] However, levels of Hb(FeII)NO in vivo are typically too low to be detected (by EPR) and SNO-Hb is EPR-silent (i.e. it is not paramagnetic). Thus, photolysis-chemiluminesence represents an important technological advance, as it is the first methodology capable of making quantitative and functional assessments of NO binding to Hb under normal physiological conditions.
Blood was obtained from the left ventricle (arterial) and jugular vein (venous) of anesthetized Sprague-Dawley rats. […] In 24 rats, Hb samples were divided in two aliquots which were then treated or not treated with 10-fold excess HgCl2 over protein concentration as measured by the method of Bradford. […]

CCOC(=O)[C@@H](N)CSN=O [S-nitrosocysteine ethyl ester]
vasoactivity of treated red blood cells (rabbit aortic ring [1]): relaxes blood vessels, most effectively under ischemic conditions

CCON=O [ethyl nitrite]
duration of dilation of aortic ring by blood of treated patient (rabbit aortic ring [2]): approximately 30 seconds
increase in SNO-Hb in blood ([3]; inhaled for 10 minutes, n=5): statistically significant
levels of iron nitrosylhemoglobin before and after treatment ([3]; inhaled for 10 minutes, n=5): no statistical difference
pulmonary vascular resistance and systemic oxygenation ([3]; inhaled): decreases in pulmonary vascular resistance and improved systemic oxygenation

N[C@@H](CCC(=O)N[C@@H](CS)C(=O)NCC(=O)O)C(=O)O [Glutathione, glutathione]
effect on red blood cell-mediated vasodilation (rabbit aortic ring [4]): potentiates the bioactivity of red blood cell-mediated vasodilation

CNC(=N)NCCC[C@H](N)C(=O)O [L-NMMA, N^G-monomethyl-L-arginine]
increase in blood pressure (Sprague-Dawley rat): about 20 mm Hg
depletion of SNO-Hb [5]: 82%
depletion of total Hb-NO [5]: 50±18%
